# Laboratory results as given in US20100120700A1, “METHODS AND COMPOSITIONS FOR TREATING CERVICAL CANCER” (priority 2000, published 2010).
# Where “and” joins values, the source holds several entries; their conditions need not be identical. Identical values can stand only once.
# Key:
# Assay in all cases: G assay PDZ-PL binding
# Details in all cases: peptide 10 uM, protein 5
# EBP50 #287.1 domain 2 = molecular target: T1, EBP50 #287.1 domain 2 (Homo sapiens, UniProt O14745)
# T1 construct: made in house; host or cells: E. coli (DH5alpha, BL21 or JM109)
# In short: (§1)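 Specific PDZ–peptide binding is taken as replicate mean signal exceeding GST-only background by standard-error criteria. Biotinylated PL peptides (20 uM; 10 uM under G′ conditions) bind to plate-captured GST/PDZ fusion protein and are detected with streptavidin-HRP at 450 nm.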
# MINT1 domain 1, 2 = molecular target: T2, MINT1 domain 1, 2 (Homo sapiens, UniProt Q02410)
# T2 construct: When more than one PDZ domain was cloned, the DNA portion cloned represents the PDZ domains and the cDNA portion located between individual domains; made in house; host or cells: E. coli (DH5alpha, BL21 or JM109), vector pGEX-3X
# In short: as §1
# NSP #42.5 domain 1 = molecular target: T3, NSP #42.5 domain 1 (Homo sapiens, UniProt Q92743)
# T3 construct: made in house; host or cells: E. coli (DH5alpha or BL-21)
# In short: as §1
# T2 sequence (Q02410 651-828 limits assumed): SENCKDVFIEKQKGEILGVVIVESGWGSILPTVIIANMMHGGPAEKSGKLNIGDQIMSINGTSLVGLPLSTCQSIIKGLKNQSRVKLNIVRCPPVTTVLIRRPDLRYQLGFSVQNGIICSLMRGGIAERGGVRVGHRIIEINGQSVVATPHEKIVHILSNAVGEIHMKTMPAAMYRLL
# T1 sequence (O14745 with tags, fused parts or gaps): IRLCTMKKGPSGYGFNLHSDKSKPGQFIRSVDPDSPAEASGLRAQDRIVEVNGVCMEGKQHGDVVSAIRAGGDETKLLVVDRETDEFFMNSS
# T3 sequence (Q92743 359-473): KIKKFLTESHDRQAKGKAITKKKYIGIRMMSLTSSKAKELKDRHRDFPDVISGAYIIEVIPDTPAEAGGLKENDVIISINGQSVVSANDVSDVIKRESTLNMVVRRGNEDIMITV
substance,measurement,setting,value
"20 mer peptide corresponding to the C-terminus of HPV16 E6 (PDZ ligand), biotinylated in binding assays; ends SSRTRRETQL (SEQ ID NO: 13) [HPV E6 #16]",Ave OD,EBP50 #287.1 domain 2; A450 nm,0.499
same,OD S/N,EBP50 #287.1 domain 2; vs GST only well,2.57
same,Ave OD,"MINT1 domain 1, 2; A450 nm",0.3655 and 0.6075
same,OD S/N,"MINT1 domain 1, 2; vs GST only well",1.42 and 2.11
same,Ave OD,NSP #42.5 domain 1; A450 nm,0.4165
same,OD S/N,NSP #42.5 domain 1; vs GST only well,1.95
